Measurements taken from patent US8937091B2 (Japan Science and Technology Agency, priority 2009, dated 2015).
Where two headings read alike, the source gives them in different places.

How the values were obtained:
[1] = tested on: SOCE (store operated calcium entry) in CHO cells; assay: Assay of SOCE (store operated calcium entry)-inhibiting action; format: cell-based, Chinese hamster; settings: CHO cells, thapsigargin
In short: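 CHO cells in calcium-free BSS received compound, then 1 μM thapsigargin 2 min later to deplete stores; after 9 min, 2 mM calcium chloride (final) added. Percent inhibition of the rise in intracellular calcium determined at various compound concentrations.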

[2] = tested on: IICR (IP3 induced calcium release) in CHO cells; assay: Assay of IICR (IP3 induced calcium release)-inhibiting action; format: cell-based, Chinese hamster; settings: for IICR level (percentage of inhibition): CHO cells, 10 μM ATP
In short: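 Inhibition (%) of the intracellular calcium increase triggered by 10 μM ATP, measured in CHO cells in BSS with calcium. Compound given 1 min after the buffer exchange and 2 min before ATP; values reported per compound concentration.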

TGase = TGase (Cavia porcellus, UniProt P08587); format: biochemical; settings: for TG level: level with DMSO control designated as 100
Description: An enzyme reaction solution (0.1 ml) (100 mM HEPES-NaOH, pH 7.5, 1 mM CaCl2, 20 μM monodansyl cadaverine, 0.05 mg/ml N,N-dimethylcasein, 5 μg/ml TGase) was introduced into wells of a 96-well plate (Nunc, 96 Well Black Plate with Clear Bottom). A test compound was added in concentrations of 0.3, 1.0, 3.0, 10, and 30 μM. The solution and the compound were sufficiently mixed while preventing foaming. The plate was set in the fluorescence drug screening system FDSS 3000 (Hamamatsu Photonics K.K.). TGase-inhibiting activity of the compound was calculated by assaying changes in fluorescence wavelength (at 340 nm) per unit time. […] The assay level at which TGase activity decreased by half in the presence of the test compound was designated as TG 50.
Hereafter, the numerals in parentheses written after the TG level, the SOCE level, and the IICR level correspond to the test compound concentrations. The number following the name of each title compound used in the Examples below represents a compound ID number designated arbitrarily by the present inventors.

Row | Molecule | IICR-inhibiting activity compared with SOCE-inhibiting activity (in words) [2] | TG-activity-inhibiting action or protein-crosslinking-inhibiting action (in words) (TGase) | also measured
1 | N,N-bis(2-naphthoylethyl)cystinemethylester [Example 391] |  |  | SOCE level (percentage of inhibition) ([1]; test compound 10 μmol): 20%; SOCE level (percentage of inhibition) ([1]; test compound 30 μmol): 40%; SOCE level (percentage of inhibition) ([1]; test compound 100 μmol): 50%; IICR level (percentage of inhibition) ([2]; test compound 10 μmol): 6%; IICR level (percentage of inhibition) ([2]; test compound 30 μmol): 37%; IICR level (percentage of inhibition) ([2]; test compound 100 μmol): 41%; TG level (TGase; test compound 3 μmol): 33; TG level (TGase; test compound 10 μmol): 6.4; TG level (TGase; test compound 30 μmol): 29
2 | O=C(CCNCCCCNCCC(=O)c1ccc(Br)s1)c1ccc(Br)s1 [Example 356] |  |  | SOCE level (percentage of inhibition) ([1]; test compound 10 μmol): 0%; SOCE level (percentage of inhibition) ([1]; test compound 30 μmol): 3%; SOCE level (percentage of inhibition) ([1]; test compound 100 μmol): 10%; IICR level (percentage of inhibition) ([2]; test compound 10 μmol): 0%; IICR level (percentage of inhibition) ([2]; test compound 30 μmol): 0%; IICR level (percentage of inhibition) ([2]; test compound 100 μmol): 10%; TG level (TGase; test compound 3 μmol): 93; TG level (TGase; test compound 10 μmol): 22.6; TG level (TGase; test compound 30 μmol): 3.6
3 | N,N-bis(2-thiophenoylethyl)cystinemethylester [Example 389] |  |  | SOCE level (percentage of inhibition) ([1]; test compound 10 μmol): 20%; SOCE level (percentage of inhibition) ([1]; test compound 30 μmol): 40%; SOCE level (percentage of inhibition) ([1]; test compound 100 μmol): 50%; IICR level (percentage of inhibition) ([2]; test compound 10 μmol): 22%; IICR level (percentage of inhibition) ([2]; test compound 30 μmol): 45%; IICR level (percentage of inhibition) ([2]; test compound 100 μmol): 54%; TG level (TGase; test compound 3 μmol): 9.7; TG level (TGase; test compound 10 μmol): 2.7; TG level (TGase; test compound 30 μmol): −3.8
4 | N,N-bis(2-(4-pyridinoyl)ethyl)cystinemethylester [Example 393] |  |  | SOCE level (percentage of inhibition) ([1]; test compound 10 μmol): 20%; SOCE level (percentage of inhibition) ([1]; test compound 30 μmol): 40%; SOCE level (percentage of inhibition) ([1]; test compound 100 μmol): 50%; IICR level (percentage of inhibition) ([2]; test compound 10 μmol): 44%; IICR level (percentage of inhibition) ([2]; test compound 30 μmol): 42%; IICR level (percentage of inhibition) ([2]; test compound 100 μmol): 21%; TG level (TGase; test compound 3 μmol): 54; TG level (TGase; test compound 10 μmol): 16; TG level (TGase; test compound 30 μmol): 3.5
5 | CCCCN(CCCC)CCC(=O)c1ccc(Br)s1 [Example 8848, 2-(N,N-di-n-butyl)aminoethyl-5-bromo-2-thienylketone] | higher than SOCE-inhibiting activity | strongly | 
6 | Cc1ccc(C(=O)CCN(Cc2ccccc2)C(C)(C)C)o1 [Example 8405, 2-(N-benzyl-t-butyl)aminoethyl-5-methyl-2-furylketone] | higher than SOCE-inhibiting activity | strongly | 
7 | CC(C)(C)N(CCC(=O)c1cccnc1)Cc1ccccc1 [Example 8702, 2-(N-benzyl-t-butyl)aminoethyl-3-pyridylketone] | higher than SOCE-inhibiting activity | strongly | 
8 | Cc1ccc(C(=O)CCN(Cc2ccccc2)C(C)(C)C)s1 [Example 8818, 2-(N-benzyl-t-butyl)aminoethyl-5-methyl-2-thienylketone] | higher than SOCE-inhibiting activity | strongly | 
9 | CN(CCC(=O)c1ccncc1)Cc1ccccc1 [Example 8673, 2-(N-methylbenzyl)aminoethyl-4-pyridylketone] | higher than SOCE-inhibiting activity | strongly | 
10 | CN(CCO)CCC(=O)c1ccco1 [Example 8707, 2-(N-2-hydroxyethylmethyl)aminoethyl-2-furylketone] | higher than SOCE-inhibiting activity | strongly | 
11 | Cc1ccsc1C(=O)CCN(Cc1ccccc1)C(C)(C)C [Example 8816, 2-(N-benzyl-t-butyl)aminoethyl-3-methyl-2-thienylketone] | higher than SOCE-inhibiting activity | strongly | 
12 | CCN(CCC(=O)c1nccs1)Cc1ccccc1 [Example 8765, 2-(N-ethylbenzyl)aminoethyl-2-thiazolylketone] | higher than SOCE-inhibiting activity | strongly | 
13 | 2-(N-t-butylbenzyl)aminoethyl-5-bromo-2-thiophenylketone [Example 8778] | higher than SOCE-inhibiting activity | strongly | 
14 | 2-(N-2-hydroxy-3-aminopropyl)aminoethyl-5-bromo-2-thienylketone [Example 8853] | higher than SOCE-inhibiting activity | strongly | 
15 | Cc1nc(C)c(C(=O)CCN(Cc2ccccc2)C(C)C)s1 [Example 8666, 2-(N-benzylisopropyl)aminoethyl-5-(2,4-dimethylthiazolyl)ketone] | higher than SOCE-inhibiting activity | strongly | 
16 | CC(C)N(CCC(=O)c1ccco1)Cc1ccccc1 [Example 8370, 2-(N-isopropylbenzyl)aminoethyl-2-furylketone] | higher than SOCE-inhibiting activity | strongly | 
17 | CC(C)N(CCC(=O)c1cc2ccccc2s1)Cc1ccccc1 [Example 8759, 2-(N-isopropylbenzyl)aminoethyl-2-benzothienylketone] | higher than SOCE-inhibiting activity | strongly | 
18 | CCC(C)N(CCC(=O)c1ccc(Br)s1)C(C)CC (stereo not shown) [Example 8849, 2-(N,N-di-sec-butyl)aminoethyl-5-bromo-2-thienylketone] | higher than SOCE-inhibiting activity | strongly | 
19 | CC(C)N(CCC(=O)c1ccc(C#N)cc1)Cc1ccccc1 [Example 8803, 2-(N-benzylisopropyl)aminoethyl-4-cyanophenylketone] | higher than SOCE-inhibiting activity | strongly | 
20 | CC(C)N(CCC(=O)c1cc(Cl)sc1Cl)Cc1ccccc1 [Example 8659, 2-(N-isopropylbenzyl)aminomethyl-3-(2,5-dichlorothiophenyl)ketone] | higher than SOCE-inhibiting activity | strongly | 
21 | O=C(CCN(CCO)Cc1ccccc1)c1cnccn1 [Example 8397, 2-(N-benzylhydroxyethyl)aminoethyl-2-pyrazylketone] | higher than SOCE-inhibiting activity | strongly | 
22 | Cc1csc(C(=O)CCN(Cc2ccccc2)C(C)(C)C)c1 [Example 8817, 2-(N-benzyl-t-butyl)aminoethyl-4-methyl-2-thienylketone] | higher than SOCE-inhibiting activity | strongly | 
23 | CC(C)(C)N(CCC(=O)c1cc2ccccc2s1)Cc1ccccc1 [Example 8761, 2-(N-t-butylbenzyl)aminoethyl-2-benzothienylketone] | higher than SOCE-inhibiting activity | strongly | 
24 | CC(C)(C)N(CCC(=O)c1nccs1)Cc1ccccc1 [Example 8729, 2-(N-benzyl-t-butyl)aminoethyl-2-thiazolylketone] | higher than SOCE-inhibiting activity | strongly | 
25 | Cc1ccc(C(=O)CCN(CCO)Cc2ccccc2)o1 [Example 8404, 2-(N-benzylhydroxyethyl)aminoethyl-5-methyl-2-furylketone] | higher than SOCE-inhibiting activity | strongly | 
26 | CCCCN(CCO)CCC(=O)c1ccc(Br)s1 [Example 8769, 2-(N-2-hydroxyethylbutyl)aminoethyl-5-bromo-2-thienylketone] | higher than SOCE-inhibiting activity | strongly | 
27 | CC(C)N(CCC(=O)c1ccc(Cc2ccccc2)cc1)Cc1ccccc1 [Example 8285, 2-(N-isopropylbenzyl)aminoethyl-4-benzylphenylketone] | higher than SOCE-inhibiting activity | strongly | 
